Data from PMC2685009, “Identification and Characterization of Inhibitors of Human Apurinic/apyrimidinic Endonuclease APE1” (PLoS ONE, 2009).

What was measured:
APE1 [1] = molecular target: T1, APE1 (Homo sapiens, UniProt P27695); assay: qHTS fluorogenic AP site incision assay (TAMRA/BHQ-2 red substrate, 1536-well); format: biochemical; conditions: 50 nM substrate, 0.75 nM APE1; read-out: qHTS IC50 (primary screen, APE1)
T1 construct: made in house
Description: Recombinant human APE1 and E. coli EndoIV were purified as previously described. Deoxyoligonucleotides containing a tetrahydrofuran (THF) AP site analog, carboxytetramethyl rhodamine (TAMRA), or Black Hole Quencher-2 (BHQ-2), as appropriate (see Figure 1), were purchased from Biosearch Technologies, Inc., (Novato, CA). To create double-stranded DNA substrates, equal volumes of 200 µM solutions of the respective strands in reaction buffer were mixed and incubated at 95°C for 5 min. The annealing mixture was allowed to cool gradually to room temperature. Annealing and assay experiments were performed in the following buffer: 50 mM Tris pH 7.5, 25 mM NaCl, 2 mM MgCl2, 1 mM DTT, 0.01% Tween-20.
Initial optimizations were carried out in 384-well format at a 40 µL total reaction volume. Briefly, 30 µL of APE1 were pipetted into the plate and incubated at room temperature for 10 min; subsequently, 10 µL of substrate were added to start the reaction. The final assay concentrations of the enzyme and substrate were 0.75 nM and 50 nM, respectively. Kinetic fluorescence data were collected on a ViewLux high-throughput CCD imager (Perkin Elmer, Waltham, MA) equipped with standard FITC (excitation filter 480 nm and emission filter 530 nm) or BODIPY (excitation filter 525 nm and emission filter 598 nm) optics.
Three µl of reagents (buffer in columns 3 and 4 as negative control and APE1 in columns 1, 2, 5–48) were dispensed into a 1536-well plate. Compounds (DMSO solutions) and control (DMSO only) (23 nL) were transferred via Kalypsys pintool equipped with 1536-pin array. The plate was incubated for 15 min at room temperature, and then 1 µL of substrate (50 nM final concentration) was added to start the reaction. Library plates were screened from the lowest to highest concentration.
Screening data were corrected and normalized, and concentration–effect relationships were derived by using in-house developed, publicly available algorithms (http://www.ncgc.nih.gov/pub/openhts/curvefit/). Percent activity was computed after normalization against the uninhibited, or neutral, control (64 wells, entire columns 1 and 2) and the no-enzyme, or 100% inhibited, control (64 wells, entire columns 3 and 4), respectively. A four parameter Hill equation was fitted to the concentration-response data by minimizing the residual error between the modeled and observed responses.

[2] = molecular target: unlabeled double-stranded DNA substrate; assay: ThO dye-displacement assay (DNA binding); conditions: 50 nM DNA, 250 nM ThO
APE1 [3] = molecular target: T1, APE1; assay: Radiotracer (32P, gel-based) incision assay; format: biochemical; conditions: range of inhibitor concentrations, data not shown; read-out: approximate IC50 in radiotracer assay
E. coli EndoIV = molecular target: T2, E. coli EndoIV (Escherichia coli, UniProt P0A6C1); assay: E. coli Endonuclease IV (EndoIV) profiling assay; format: biochemical
T2 construct: made in house
Description: EndoIV enzyme and substrate (same as that used with APE1) optimization tests were initially performed at a 40 µL final volume in a 384-well format. Reaction concentrations of 2 nM EndoIV and 50 nM DNA substrate were selected for subsequent experiments. For running the assay in 1536-well format, the same protocol as described for APE1 above was followed.

[4] = test system: AP site cleavage activity of HeLa whole cell extract; assay: Whole cell extract AP endonuclease activity assay (HeLa); format: biochemical, human; conditions: inhibitor at 100 µM
Description: (§1) The radiotracer assay was performed essentially as described. In brief, prioritized candidate inhibitor compounds from the qHTS assay were incubated at various concentrations (100 µM data shown) with APE1 (100 pg) at room temperature for 15 min in 25 mM Tris pH 7.5, 25 mM NaCl, 1 mM MgCl2, 1 mM DTT and 0.01% Tween-20. At that time, 0.5 pmol ^32P-radiolabeled THF-containing 34 mer double-stranded DNA substrate was added. Incision reactions were then carried out immediately at 37°C for 10 min in a final volume of 10 µL. After the addition of an equal volume of stop buffer (0.05% bromophenol blue and xylene cynol, 20 mM EDTA, 95% formamide), the radiolabeled substrate and product were separated on a standard polyacrylamide denaturing gel and quantified by phosphorimager analysis.
(§2) HEK 293T or HeLa cells – maintained in DMEM with 10% fetal bovine serum and 1% Penicillin-Streptomycin – were harvested, washed with 1× PBS, re-suspended in cold 222 mM KCl, incubated on ice for 30 min, and clarified by centrifugation at 12,000×g for 15 min at 4°C [23]. The supernatant (whole cell extract) was retained, the protein concentration determined using the Bio-Rad Bradford reagent, and aliquots were stored at −80°C. AP endonuclease activity assays were performed with or without candidate inhibitor compounds as described above, except 60 ng HEK 293T or 80 ng of HeLa whole cell extract was used.

[5] = set-up: method as in PMID 7019686; conditions: cited from earlier work
HeLa cells = assay: AP site measurement in chromosomal DNA; format: cell-based, human
Description: HeLa cells were treated as above, except only at 5 µM inhibitor where indicated. Following exposure, chromosomal DNA was isolated and steady-state AP site levels were measured using the DNA Damage Quantification Kit from Dojindo Molecular Technologies, Inc. (Gaithersburg, MD) as previously described.

[6] = test system: AP site cleavage activity of HEK 293T whole cell extract; assay: Whole cell extract AP endonuclease activity assay (HEK 293T); format: biochemical, human; conditions: inhibitor at 100 µM
Description: as §1, §2

T1 sequence (P27695 whole entry): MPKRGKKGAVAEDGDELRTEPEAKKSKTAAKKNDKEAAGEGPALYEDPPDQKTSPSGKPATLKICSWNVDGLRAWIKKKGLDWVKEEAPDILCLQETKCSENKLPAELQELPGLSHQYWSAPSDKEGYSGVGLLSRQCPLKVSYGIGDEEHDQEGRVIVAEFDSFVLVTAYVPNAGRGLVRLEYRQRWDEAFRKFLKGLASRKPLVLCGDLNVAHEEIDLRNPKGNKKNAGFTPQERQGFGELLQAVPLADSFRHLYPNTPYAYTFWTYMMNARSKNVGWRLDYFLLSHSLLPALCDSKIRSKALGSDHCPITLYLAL

O=c1c(O)c(-c2cc(O)c(O)c(O)c2)oc2cc(O)cc(O)c12 [myricetin]
IC50 (APE1 [1]): 320 nM | IC50 [2]: 3500 nM | IC50 (APE1 [3]): < 500 nM | activity against EndoIV compared with APE1 (in words) (E. coli EndoIV): completely inactive or weakly active | IC50 (E. coli EndoIV; 2 nM EndoIV, 50 nM substrate, read-out: Endo IV IC50 (E. coli EndoIV profiling)): > 57000 nM | inhibition of total AP site cleavage activity [4]: ≥ 80% | mutagenesis in the Ames Test [5]: promote mutagenesis | AP site damage, inhibitor alone (HeLa cells; 5 µM inhibitor alone, relative to control cells): increased AP site damage relative to the control cells | AP site damage, inhibitor plus MMS (HeLa cells; 5 µM inhibitor plus MMS): potentiated the genotoxic potential of MMS | inhibition of total AP site cleavage activity [6]: ≥ 80%
